Results reported in patent publication US12508248B2, “Therapeutic agent for prototheca disease” (priority 2019, dated 2025).
≈ marks a conversion by molar mass, not a printed value.

Key:
Prototheca blaskeae = assay: Broth microdilution MIC assay, CLSI M27-A3 guideline; format: cell-based; details: strain NUBS19005, bovine protothecal mastitis; 32 degrees, 72 hours
Procedure: (§1) For Prototheca wickerhamii, isolates (1 cat strain and 2 dog strains) were obtained from dogs and cats suffering from a prototheca disease. For Prototheca zopfii, bovine prototheca mastitis isolates (Genotype 2, 10 strains) and environmental isolates (Genotype 1, 10 strains) were obtained. For Prototheca blaskeae, a prototheca mastitis isolate (1 strain) was obtained. For Prototheca zopfii, the drug susceptibility was tested also on Genotype 1 established strain (SAG20063^T) and Genotype 2 established strain (SAG2021^T).
(§2) The isolates were maintained on Yeast Extract-Peptone-Dextrose agar (YPD: 1% yeast extract, 2% peptone, 2% dextrose, 2% agar) and tested for antifungal susceptibility. The susceptibility of the isolates to the antifungal agents itraconazole (ITZ, Merck KGA) and ravuconazole (RVZ, selenium pharma) was measured using a trace liquid dilution method (broth microdilution assay) according to the CLSI M27-A3 guideline. The minimum inhibitory concentration (MIC) was measured after culturing at 32 degrees for 72 hours. MIC was defined as the lowest concentration that induces significant inhibition of growth (inhibition of about 50% or more). As a control, Candida parapsilosis ATCC 22019 obtained from ATCC was used, and the MIC assay of the CLSI M27-A3 test was performed.

[1] = test system: Prototheca zopfii Genotype 1; assay: as above; format: cell-based; details: for MICs: 32 degrees, 72 hours
Procedure: as §1, §2

[2] = test system: Prototheca zopfii Genotype 2; assay: as above; format: cell-based; details: 32 degrees, 72 hours
Procedure: as §1, §2

Prototheca wickerhamii = assay: as above; format: cell-based; details: for MICs: 32 degrees, 72 hours
Procedure: as §1, §2

prototheca species = assay: Overall comparison of anti-algae effect against prototheca species; format: cell-based
Procedure: as §2

[3] = test system: Candida parapsilosis ATCC 22019; assay: MIC assay of the CLSI M27-A3 test, control strain; format: cell-based
Procedure: as §2

[4] = test system: several strains of Prototheca wickerhamii and Prototheca zopfii; details: previous study on susceptibility, Non-Patent Document 1; cited from earlier work
[5] = when administered to humans; cited from earlier work
[6] = strain NUBS19004, environment (GT1)
[7] = strain SAG2063T, type strain of (GT1)
[8] = strain A7, bovine protothecal mastitis (GT2)
[9] = strain A8, bovine protothecal mastitis (GT2)
[10] = strain A9, bovine protothecal mastitis (GT2)
[11] = strain A10, bovine protothecal mastitis (GT2)
[12] = strain A11, bovine protothecal mastitis (GT2)
[13] = strain A13, bovine protothecal mastitis (GT2)
[14] = strain A14, bovine protothecal mastitis (GT2)
[15] = strain A15, bovine protothecal mastitis (GT2)
[16] = strain A16, bovine protothecal mastitis (GT2)
[17] = strain A17, bovine protothecal mastitis (GT2)
[18] = strain SAG2021T, type strain of GT2
[19] = strain NUBS19001, feline protothecosis
[20] = strain NUBS19002, canine protothecosis
[21] = strain NUBS19003, canine protothecosis

Molecule | MICs (Prototheca blaskeae) | MICs ([1]; strain I1, environment (GT1)) | MICs ([1]; strain I3, environment (GT1)) | MICs [1, 6] | MICs ([1]; strain S2, environment (GT1)) | MICs ([1]; strain S3, environment (GT1)) | MICs ([1]; strain S29, environment (GT1)) | MICs ([1]; strain S36, environment (GT1)) | MICs ([1]; strain S42, environment (GT1)) | MICs [1, 7] | MICs ([1]; strain W3, environment (GT1)) | MICs ([1]; strain W20, environment (GT1)) | MICs [2, 8] | MICs [2, 9] | MICs [2, 10] | MICs [2, 11] | MICs [2, 12] | MICs [2, 13] | MICs [2, 14] | MICs [2, 15] | further results
ravuconazole [RVZ] | 0.03 mg/L | 0.03 mg/L | 0.03 mg/L | 0.03 mg/L | 0.03 mg/L | 0.03 mg/L | 0.03 mg/L | 0.03 mg/L | 0.03 mg/L | 0.03 mg/L | 0.03 mg/L | 0.03 mg/L | 0.125 mg/L | 0.03 mg/L | 0.03 mg/L | 0.03 mg/L | 0.25 mg/L | 0.125 mg/L | 0.03 mg/L | 0.0625 mg/L | MIC of 11 isolates of Genotype 1 of Prototheca zopfii ([1]; summary over 11 isolates of Genotype 1): 0.03 µg/mL; MICs [2, 16]: 0.03 mg/L; MICs [2, 17]: 0.25 mg/L; MICs [2, 18]: 0.125 mg/L; MICs (Prototheca wickerhamii; [19]): 0.03 mg/L; MICs (Prototheca wickerhamii; [20]): 0.03 mg/L; MICs (Prototheca wickerhamii; [21]): 0.03 mg/L; MIC of the three clinical isolates of Prototheca wickerhamii (Prototheca wickerhamii; summary over three clinical isolates): 0.03 µg/mL; effectiveness (anti-algae effect) compared with itraconazole against pathogen of prototheca species (prototheca species; versus itraconazole): more effective; activity compared with publicly known results of kanamycin, gentamicin, amphotericin B and itraconazole against prototheca species (prototheca species; versus publicly known results of KM, GM, AMB, ITZ): stronger activity; MIC for the control strain Candida parapsilosis ATCC 22019 [3]: 0.03 µg/mL
C[C@@H]1[C@H](O)[C@@H](C)/C=C/C=C/C=C/C=C/C=C/C=C/C=C/[C@H](O[C@@H]2O[C@H](C)[C@@H](O)[C@H](N)[C@@H]2O)C[C@@H]2O[C@](O)(C[C@@H](O)C[C@@H](O)[C@H](O)CC[C@@H](O)C[C@@H](O)CC(=O)O[C@H]1C)C[C@H](O)[C@H]2C(=O)O [AMB, amphotericin B] | – | – | – | – | – | – | – | – | – | – | – | – | – | – | – | – | – | – | – | – | effectiveness against several strains of Prototheca wickerhamii and Prototheca zopfii [4]: not effective
CCC(C)n1ncn(-c2ccc(N3CCN(c4ccc(OCC5COC(Cn6cncn6)(c6ccc(Cl)cc6Cl)O5)cc4)CC3)cc2)c1=O (stereo not shown) [ITZ, itraconazole] | 32 mg/L | 2 mg/L | 0.25 mg/L | 1 mg/L | 32 mg/L | 8 mg/L | >32 mg/L | 16 mg/L | 8 mg/L | 1.5 mg/L | 4 mg/L | 4 mg/L | 32 mg/L | 4 mg/L | >32 mg/L | >32 mg/L | >32 mg/L | >32 mg/L | >32 mg/L | >32 mg/L | MICs [2, 16]: 8 mg/L; MICs [2, 17]: 4 mg/L; MICs [2, 18]: >32 mg/L; MICs (Prototheca wickerhamii; [19]): >32 mg/L; MICs (Prototheca wickerhamii; [20]): >32 mg/L; MICs (Prototheca wickerhamii; [21]): 4 mg/L; MIC ([3]; Lodderomyces parapsilosis, ATCC22019): 0.125 µg/mL (≈ 0.177 µM)
gentamicin | – | – | – | – | – | – | – | – | – | – | – | – | – | – | – | – | – | – | – | – | effectiveness against several strains of Prototheca wickerhamii and Prototheca zopfii [4]: not effective
C[C@@H](c1nc(-c2ccc(C#N)cc2)cs1)[C@@](Cn1cncn1)(OCOP(=O)(O)O)c1ccc(F)cc1F [Fosravuconazole, fosravuconazole] | – | – | – | – | – | – | – | – | – | – | – | – | – | – | – | – | – | – | – | – | conversion of prodrug to ravuconazole [5]: rapidly converted to ravuconazole
